Reference: US6353004B1, “Peripherally acting anti-pruritic opiates” (Adolor Coporation, priority 1997, dated 2002)

Legend:
[1] = tested on: Compound 48/80-induced scratching; test: mouse scratch model: antagonism of Compound 48/80-induced scratching; format: in vivo, male Swiss albino mice; conditions: s.c.; for Mean % Inhibition of Scratching: Compound 48/80 challenge, scratching counted for 30 min; for antagonism of Compound 48/80-induced scratching (in words): mice
Procedure: Testing was performed in a mouse scratch model under blind conditions.
Groups of 8-10 male Swiss albino mice (Hilltop Lab Animals, Inc., Scottsdale, Pa.), weighing […], were used in the testing. They were housed under controlled temperature of 23-25° C. Food and water were freely available. Before the experiments, the mice were weighed, put into individual boxes and allowed to acclimate for 30 min.
Vehicle used to dissolve the test compounds: 20% w/w cremophor EL.
100 μl of the vehicle (3-5 doses, n=8-10) was injected s.c. into the back of the neck of mice 20 min. before challenging them with 100 μl of Compound 48/80 (2 mg/ml; […]) injected s.c. into the back of the neck.
To each mouse of a group of 8-10 mice previously subjected to the standard challenge various doses of the compounds, to be tested for anti-pruritic activity, were administered s.c. into the back of the neck.
For each group of 8-10 mice, the mean values for scratching were normalized to relative % antagonism of scratching and then plotted vs. dose of test compounds. Interval estimates of mean A50 were determined by nonlinear regression analysis (Kaleida Graph) and mean % inhibition of scratching was calculated.

[2] = i.v. administration; cited from earlier work

| Compound | Mean % Inhibition of Scratching ([1]; dose 2.5 mg/kg) [%] | Mean % Inhibition of Scratching ([1]; dose 5.0 mg/kg) [%] | Mean % Inhibition of Scratching ([1]; dose 10.0 mg/kg) [%] | antagonism of Compound 48/80-induced scratching (in words) [1] | Mean % Inhibition of Scratching ([1]; dose 1.0 mg/kg) [%] | generalized itching, share of patients [2] |
| --- | --- | --- | --- | --- | --- | --- |
| Cl.O=C(O)C1(c2ccccc2)CCN(CCC(c2ccccc2)(c2ccccc2)c2ccccn2)CC1 [(1), 1-[3,3-diphenyl-3-(2-pyridyl)propyl]-4-phenyl-4-piperidinecarboxylic acid hydrochloride] | 32 | 65 | 83 | antagonized Compound 48/80-induced scratching in a dose-related manner |  |  |
| OC1(Cc2ccc(Cl)cc2)CCN(CCC(c2ccccc2)(c2ccccc2)c2ccccc2)CC1 [(2), 1-(3,3,3-triphenylpropyl)-4-hydroxy-4-p-chlorobenzylpiperidine] | 68 | 94 |  | antagonized Compound 48/80-induced scratching in a dose-related manner | 35 |  |
| CN(C)C(=O)C(CCN1CCC(O)(c2ccc(Cl)cc2)CC1)(c1ccccc1)c1ccccc1.Cl [(3), reference compound] |  |  |  | antagonized Compound 48/80-induced scratching in a dose-related manner |  |  |
| CN1CC[C@]23c4c5ccc(O)c4O[C@H]2[C@@H](O)C=C[C@H]3[C@H]1C5 [morphine] |  |  |  |  |  | about 1% |
